Test results from patent publication US20260306463A1, “SIK INHIBITORS TO TREAT CHRONIC KIDNEY DISEASE” (The General Hospital Corporation, priority 2023, published 2026).

System: intact proximal tubular epithelial genes
Test: whole kidney RNA RT-qPCR of proximal tubule marker genes, adenine CKD mice
Format: in vivo, mouse
Method: FIGS. 1A-1E. […] (A) Study design: Female CD1 mice (n=8/group) were treated with control or 0.2% adenine diet starting at 6 weeks of age along with vehicle or SK-124 (40 mg/kg) treatment by oral gavage once daily. Bottom: body weight of mice in the indicated treatment groups. […] (B, C) After 6 weeks of treatment, the indicated analytes were measured in fasting serum or urine. […] (D) H+E-stained kidney sections were assessed on a blinded basis by a pathologist for tubulointerstitial damage. (E) Whole kidney RNA from the indicated groups was analyzed by RT-qPCR for the indicated proximal tubule marker gene. For all panels in all figures, 1-way ANOVA was performed with Dunnett's posthoc analysis to analyze differences between treatment groups, p values less than 0.05 are shown in graph.
7-week-old female CD1 mice were obtained from Charles River Laboratories (Wilmington, MA) and were fed on 0.2% adenine containing diet (TD.130900; 0.2% Adenine, 0.9% Phosphate, 0.5% Calcium; Envigo) or control diet (TD. 96348) for 6 or 8 weeks to induce chronic kidney disease (CKD). Mice were oral gavaged with 40 mg/kg SK-124, or intraperitonially injected with 80 μg/kg PTH, or treated with vehicle 5 days a week for the duration of the special diet.
For studies with Ubiquitin-Cre^ERt2; Sik2^ff; Sik3^ff mice (JAX #007001 for Ubiquitin-Cre^ERt2: RRID:MGL:5905012 for Sik2 foxed mice; and Sik3^tmla(EUCOMM)Hmgu mice (RRID:MGI:5085429) bred to PGK1 FLPo mice (JAX #011065) in order to generate Sik3 foxed mice), tamoxifen was injected (1 mg, IP, Q48 hours, 3 injections total) in all animals including Cre-negative control littermates housed in cages with Pure-o′Cel bedding at 5 weeks of age. Mice were then fed on 0.2% adenine diet from 6 weeks to 9 weeks of age. Mice were fasted for 6 hours and treated with SK-124 and PTH 4 hours and 2 hours before the sacrifice. Blood and spot urine samples were collected by cheek pouch bleeding and by pipetting urine collected on hydrophobic sand (Labsand; Braintree, MA). Kidneys were immediately snap-frozen in liquid nitrogen for TRIzol (Life Technologies)-Chloroform (Fischer Scientific) based RNA isolation or protein isolation, or fixed in 10% formalin at 4C for 24 hrs for histology. All serum and urine measurements were performed using commercial bioassay detection reagents listed in Table 1, following the manufacturers' instructions. Urine protein levels were measured by Bradford assay and normalized to urine creatinine.
cDNA was prepared using Primescript RT kit (Takara Inc), with 750 ng RNA per reaction. […] Hmbs was used as a control housekeeping gene for mouse samples, and B-Actin was used for organoids, relative expression was calculated (2^-deltaCT method) and compared to the mean of control group if necessary. […]

[1] = whole kidney RNA, RT-qPCR, 6 weeks adenine diet

For `CCc1nnc(-c2c(OC)cc(-c3cnc4cc(-c5cnn(C)c5)ccn34)cc2OC)o1` [SK-124, 2-[2,6-Dimethoxy-4-[7-(1-methylpyrazol-4-yl)imidazo[1,2-a]pyridin-3-yl]phenyl]-5-ethyl-1,3,4-oxadiazole], the epithelial cell integrity (adenine-induced CKD) was “preserves epithelial cell integrity”, the Atpla1 expression [1] was “restored expression” and the Lrp2 expression [1] was “restored expression”. The Slc34a1 expression [1] was “restored expression”.
